Legend:
HOM2 cells = test: 35S-methionine/cysteine pulse/chase of HOM2 cells, immunoprecipitation of class II with Tu36, SDS-PAGE (Ii processing and SDS-stable peptide-loaded αβ dimers)
cathepsin D [1] = test: Inhibition of cathepsin D activity in human monocytes; assay type: cell-based
cathepsin D [2] = biological target: cathepsin D (Homo sapiens, UniProt P07339); settings: Alteri et al. 1993; cited from earlier work
cathepsin S = cathepsin S (Homo sapiens, UniProt P25774); test: Active site labeling of cysteine proteases with Cbz-[125I]-Tyr-Ala-CN2 in HOM2 cells after preincubation with inhibitor; settings: LHVS concentration of 1 nM, 37°C 1 hour prior to labeling
[3] = system: Peripheral blood mononuclear cells (PBMC's); assay type: cell-based, human; settings: 3-5 days
cathepsin H = biological target: T1, cathepsin H (Homo sapiens, UniProt P09668); test: Inhibition of purified human cathepsin H; assay type: biochemical; settings: concentration not given
T1 sequence (P09668 98-335): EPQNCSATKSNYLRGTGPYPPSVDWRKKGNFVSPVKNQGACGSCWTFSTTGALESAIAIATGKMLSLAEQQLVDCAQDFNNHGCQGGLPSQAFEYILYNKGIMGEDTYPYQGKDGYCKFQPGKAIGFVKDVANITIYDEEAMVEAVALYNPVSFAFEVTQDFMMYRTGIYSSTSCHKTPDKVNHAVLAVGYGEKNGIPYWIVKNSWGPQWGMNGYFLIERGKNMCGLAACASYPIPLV

cathepsin B = cathepsin B (Homo sapiens, UniProt P07858); test: Active site labeling of cysteine proteases with Cbz-[125I]-Tyr-Ala-CN2 in HOM2 cells after preincubation with inhibitor; settings: inhibitor concentration of 5 nM

Chain of cathepsin D (Homo sapiens, UniProt P07339) (P07339 65-412): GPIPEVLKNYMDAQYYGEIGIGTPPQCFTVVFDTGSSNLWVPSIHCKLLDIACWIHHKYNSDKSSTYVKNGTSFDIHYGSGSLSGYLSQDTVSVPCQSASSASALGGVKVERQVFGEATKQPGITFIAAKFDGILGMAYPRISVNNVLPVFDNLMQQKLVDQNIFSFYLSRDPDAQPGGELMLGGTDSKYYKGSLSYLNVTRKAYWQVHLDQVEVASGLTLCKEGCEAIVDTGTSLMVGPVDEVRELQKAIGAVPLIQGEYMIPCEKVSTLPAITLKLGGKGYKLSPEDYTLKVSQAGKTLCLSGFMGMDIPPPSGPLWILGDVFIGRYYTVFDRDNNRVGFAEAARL
Chain of cathepsin S (P25774 115-331): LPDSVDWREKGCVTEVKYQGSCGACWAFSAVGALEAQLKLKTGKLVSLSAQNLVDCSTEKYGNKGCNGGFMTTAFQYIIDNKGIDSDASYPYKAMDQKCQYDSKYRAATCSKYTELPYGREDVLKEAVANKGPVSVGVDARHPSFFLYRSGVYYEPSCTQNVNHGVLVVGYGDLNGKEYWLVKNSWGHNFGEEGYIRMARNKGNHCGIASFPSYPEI

Compound: CC(C)[C@H](NC(=O)[C@H](Cc1ccccc1)C[C@H](O)[C@H](Cc1ccccc1)NC(=O)OC(C)(C)C)C(=O)N[C@@H](Cc1ccccc1)C(=O)N1CCOCC1 [CGP 53437]
- SDS-stable complexes (HOM2 cells; 5 µM or 50 µM CGP 53437, chase 5 hours): nor did it produce a decrease
- inhibits cathepsin D activity in human monocytes (cathepsin D [1]; 5 µM): 75%
- inhibits cathepsin D activity in human monocytes (cathepsin D [1]; 50 µM): 90%
- inhibits cathepsin D (cathepsin D [2]): nanomolar range

Compound: CCOC(=O)[C@H]1O[C@@H]1C(=O)N[C@@H](CC(C)C)C(=O)NCCC(C)C (relative stereo) [E64D]
- SDS-stable dimer formation (HOM2 cells; E64D, concentration not stated in Example 2): decrease

Compound: CC(C)C[C@H](NC(=O)N1CCOCC1)C(=O)N[C@H](/C=C/S(=O)(=O)c1ccccc1)CCc1ccccc1 [LHVS, morpholinurea-leucine-homophenylalanine-vinylsulfone phenyl]
- labeling of cathepsin S (cathepsin S): effectively inhibited
- formation of SDS-stable complexes (peptide loading) (HOM2 cells; 1 nM and 5 nM LHVS, chase 5 hours): marked decrease
- attenuation of 3H-thymidine uptake response to tetanus toxoid [3]: approximately 60%
- inhibition of purified human cathepsin H (cathepsin H): not inhibited
- labeling of cathepsin B (cathepsin B): decreased, although some activity remained
